In US7838495B2, “Compositions and methods of use of EPB1, and ErbB3 binding protein” (University of Maryland, Baltimore, priority 2007, dated 2010):

What was measured:
[1] = test system: AR regulated MMTV promoter; assay: MMTV-luciferase reporter response to R1881 in A16 and C13 cells; type: cell-based, human; settings: EBP1 knock out cells vs A16, R1881 10^-8 M, p<0.05
Procedure: FIG. 7A-C. Suppression of EBP1 by shRNA promotes a hormone refractory phenotype A. Western blot analysis of Ebp1. Lysates of LNCaP cells stably transduced with a control lentivirus (A16) or an EBP1 targeted shRNA (13C) were collected and resolved by SDS-PAGE. Western blots were probed for endogenous EBP1 or ACTIN as indicated. B. Inhibition of EBP1 expression abrogates the ability of HRG to arrest growth (Left panel) Control and shRNA EBP1 targeted cells were plated in complete media at […] for one day. The next day, cells were switched to steroid reduced-media and HRG added at the indicated concentrations. Total cell numbers were determined seven days later by MTT assay. Each point represents mean±S.E. of 6 wells. Data is representative of three experiments. (Right Panel) AKT phosphorylation in EBP1 knock out cells Control (A16) or EBP 1 knock out cells (C13) were treated with HRG (20 ng/ml) for 15 mm and cell lysates assessed for the presence of phospho and total AKT as indicated. C. […] Sixteen hours later, luciferase activity was measured. […] Lysates of logarithmically growing A16 and C13 cells were resolved by SDS-PAGE and analyzed by Western blotting using antibodies to AGR2 and ACTIN as indicated. […] The viability of the cells was determined by MTT assays 5 days later. […]

AR = AR (Homo sapiens, UniProt P10275, T878A)
Procedure: Luciferase Reporter Assays: Vector control or EBP1-transfected LNCaP (5×10^4) cells were plated in twelve-well plates in complete media. When cells reached 50-60% confluence, they were transfected with 0.5 μg of MMTV-luc using the Fugene-6 reagent (Roche). Cells were also transfected with the RL-TK vector as an internal control. […] Luciferase activity was determined as previously described using a Dual-Luciferase kit (Promega, Madison, Wis.). The activities of renilla luciferase were used to normalize any variations in transfection efficiency. The promoter activities of each plasmid construct were calculated as the firefly-renilla luciferase activity ratios. All transfection experiments were carried out in triplicate wells and repeated three times.

AR, sequence (P10275 whole entry T878A): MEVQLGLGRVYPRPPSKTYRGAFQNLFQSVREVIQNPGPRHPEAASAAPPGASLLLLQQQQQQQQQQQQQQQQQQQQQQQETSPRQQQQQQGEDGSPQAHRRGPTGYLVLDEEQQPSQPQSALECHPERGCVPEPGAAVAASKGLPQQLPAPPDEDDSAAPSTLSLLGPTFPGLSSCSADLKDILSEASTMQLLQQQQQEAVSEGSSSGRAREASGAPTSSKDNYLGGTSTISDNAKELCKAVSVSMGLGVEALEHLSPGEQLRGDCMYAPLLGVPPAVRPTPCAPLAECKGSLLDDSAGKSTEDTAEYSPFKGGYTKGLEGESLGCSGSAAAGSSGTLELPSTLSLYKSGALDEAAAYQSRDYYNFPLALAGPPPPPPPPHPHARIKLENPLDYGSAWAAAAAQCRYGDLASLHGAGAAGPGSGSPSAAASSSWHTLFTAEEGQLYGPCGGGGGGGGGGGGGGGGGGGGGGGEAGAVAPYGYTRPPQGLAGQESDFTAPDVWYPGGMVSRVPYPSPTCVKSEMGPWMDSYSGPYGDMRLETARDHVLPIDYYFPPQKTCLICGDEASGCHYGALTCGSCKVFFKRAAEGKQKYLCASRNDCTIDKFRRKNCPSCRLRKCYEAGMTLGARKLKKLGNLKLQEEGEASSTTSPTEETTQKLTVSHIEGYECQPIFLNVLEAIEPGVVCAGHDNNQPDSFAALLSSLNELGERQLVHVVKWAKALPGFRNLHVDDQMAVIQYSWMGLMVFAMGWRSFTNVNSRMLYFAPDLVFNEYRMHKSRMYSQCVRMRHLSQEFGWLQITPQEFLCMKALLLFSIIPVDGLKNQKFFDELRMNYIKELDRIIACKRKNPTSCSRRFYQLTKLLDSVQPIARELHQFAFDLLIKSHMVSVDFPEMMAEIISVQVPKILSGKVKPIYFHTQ

C[C@]1(O)CC[C@H]2[C@@H]3CCC4=CC(=O)CCC4=C3C=C[C@@]21C [R1881]
transcriptional response of AR regulated MMTV promoter to R1881 [1]: enhanced
AR activation (MMTV-luc) (AR; LNCaP EPB1 transfectants): neither R1881 nor cyproterone acetate nor the combination thereof stimulated AR activation
activation of MMTV-luc luciferase activity (AR; LNCaP vector controls, 10^-8 M): 20 fold
